# In patent US10864182B2, “Treatment of fragile X syndrome” (Healx Limited, priority 2018, dated 2020):
# “Also recorded” adds a separate entry of the source.
# Tests used:
# Assay type in all cases: in vivo
# Fmr1 KO2 mice [1] = experiment: Contextual fear conditioning; settings: 5 mg/kg by subcutaneous osmotic minipump, 15 days, KO not different from WT
# Text: (§1) Fmr1 knockout 2 (Fmr1 KO2) mice were generated by deletion of the promoter and first exon of Fmr1. The Fmr1 KO2 it is both, protein and mRNA null. In this study we used Fmr1 KO2 and wild-type (WT) littermates generated on a C57BL/6J background and repeatedly backcrossed onto a C57BL/6J background for more than eight generations.
# (§2) There were four treatment groups per compound in the study with 10 male mice used per treatment group (all at 8 weeks of age): Group 1: Fmr1 KO2 mice treated with vehicle (Fmr1 KO2-V), Group 2: wild-type littermate mice treated with vehicle (WT-V), Group 3: Fmr1 KO2 mice treated with sulindac (Fmr1 KO-Sulindac) and Group 4: wild-type littermate mice treated with sulindac (WT-Sulindac)
# (§3) Sulindac: 5 mg/kg by osmotic minipumps (ALZET Osmotic Pumps Cupertino, Calif., USA) implanted subcutaneously for 15 days delivery.
# For experiments, all mice were tested once in the same apparatus. Prior to testing, mice were placed in the apparatus for some minutes before the experiment. The apparatus was cleaned with moist and dry tissues before testing each mouse. […] We assessed weight loss, fur loss, walking, eyes open, eye discharges and general behavior. […]
# (§4) Data were analyzed by two-way analysis of variance (ANOVA) followed by post-test comparisons where appropriate using Tukey's Multiple Comparison Test. […]
# Fmr1 KO2 mice [2] = experiment: Three-chambered sociability task (social interaction); settings: 5 mg/kg by subcutaneous osmotic minipump, 15 days
# Text: as §1, §2, §3
# (§5) For experiments, all mice were tested once in the same apparatus. […] We assessed weight loss, fur loss, walking, eyes open, eye discharges and general behavior.
# In the three-chambered sociability task, a subject mouse was evaluated for its exploration of a novel social stimulus (novel mouse). […] The time spent exploring the novel mice was scored as exploration ratio.
# as §4
# Fmr1 KO2 mice [3] = experiment: Open field (hyperactivity); settings: 5 mg/kg by subcutaneous osmotic minipump, 15 days chronic treatment, 3 min observation
# Text: as §1
# as §2, with “(WT-Sulindac) […]” for “(WT-Sulindac)”
# as §5
# The open-field apparatus was used to test hyperactivity. […] The number of squares entered by the whole body (locomotor activity) was counted. The movement of the mouse around the field was recorded with a video tracking device for 3 min (version NT4.0, Viewpoint).
# as §4
# Fmr1 KO2 mice [4] = experiment: Nesting; settings: 5 mg/kg by subcutaneous osmotic minipump, 15 days, listed as sulindac
# Text: as §1, §2, §3, §5
# The test was performed in individual cages. […] Mice were placed individually into the nesting cages 1 hr. before the dark phase, and the results were assessed the next morning. Nest building was scored on a 5 point scale. […]
# as §4
compound,measurement,setting,value
"CC1=C(CC(=O)O)c2cc(F)ccc2/C1=C\c1ccc([S+](C)[O-])cc1 (stereo not drawn) [Sulindac, (Z)-5-fluoro-2-methyl-1-[[p-(methylsulfinyl)phenyl]methylene]-1H-indene-3-acetic acid]",freezing in contextual memory test (learning and memory),Fmr1 KO2 mice [1]; p=0.3968,ameliorates the Fmr1 KO deficit in learning and memory
same,freezing in contextual memory test (learning and memory),"Fmr1 KO2 mice [1]; p=0.3968, listed as sulindac",partially rescuing
same,sociability (exploration index of the novel mouse),Fmr1 KO2 mice [2],partially improved such impairment
same,sociability (exploration index of the novel mouse),Fmr1 KO2 mice [2]; listed as sulindac,partially rescuing
same,"hyperactivity in open field (locomotor activity, number of squares entered)",Fmr1 KO2 mice [3],fully rescuing; also recorded: normalizes hyperactivity
same,"nesting behavior (nest building score, 5 point scale)",Fmr1 KO2 mice [4],fully rescuing; also recorded: normalization in nesting behavior
